Data as given in a compilation of properties of binary mixtures (doi:10.1016/j.molliq.2021.118393).

Experiment: xn = mol fraction of the nth substance listed
Settings: 100 kPa

O=C(O)CCl + CCCC[N+](CCCC)(CCCC)CCCC.O=S(=O)([O-])O
Settings	electrical conductivity, x2 = 0.333 [S/m]	electrical conductivity, x2 = 0.5 [S/m]	speed of sound, x2 = 0.333 [m/s]	speed of sound, x2 = 0.5 [m/s]	viscosity, x2 = 0.333 [mPa·s]	viscosity, x2 = 0.5 [mPa·s]
293.15 K	0.012	0.0017	1539.9	1623.8	–	–
298.15 K	0.0189	0.0032	1523.1	1594.7	–	–
303.15 K	–	0.0053	–	1569.4	–	–
308.15 K	–	0.0037	–	1547	–	–
313.15 K	0.0508	–	1475.5	–	176.3	–
318.15 K	0.0669	0.0143	1460.9	1509	132.2	769
323.15 K	0.0861	0.0226	1446.5	1492.3	101.9	546
328.15 K	0.108	0.0306	1432.5	1476.3	81.5	396
333.15 K	0.133	–	1418.6	–	64.29	–

O=C(O)CCl + CCC[N+](CCC)(CCC)CCC.[Br-]
x2 = 0.333
Settings	electrical conductivity [S/m]	speed of sound [m/s]	viscosity [mPa·s]
293.15 K	0.0435	1550.2	178.6
298.15 K	0.0673	1535.1	119.4
303.15 K	0.0981	1520.3	84.3
313.15 K	0.177	1491.4	45.76
318.15 K	0.228	1477.4	34.88
323.15 K	0.284	1463.4	27.18
333.15 K	0.407	1436.1	17.67
